Source: patent EP3827825A1, “USE OF 3, 4-DIARYLPYRAZOLES AS ANTIBACTERIAL AGENTS” (Wageningen Universiteit, priority 2019, dated 2021)
In brackets after ≈: the same amount, converted by molar mass.

Tests used:
S. suis = experiment: Minimal inhibitory concentration (MIC), double-dilution in broth, OD600; format: cell-based, Streptococcus suis; conditions: unit assumed
Procedure: (§1) In short, a stock solution of 5 mg/mL of HKIs in DMSO was made. This stock was diluted to 50 µg/mL in broth in a 96 well plate. Dilutions were made (factor 2) directly in the plate with a multi-channel pipet. Bacteria cultured in suspension overnight were then added to the plate (except negative control) and the plate was incubated for 24 hours. After 24 hours the OD600 was measured using a spectrophotometer. A positive control (with bacteria, without HKI) was also measured on each plate. The MICs were not determined in duplo/triplicate in the same experiment, however, the MICs of several HKIs were measured in different experiments and no major differences (max. 1x dilution) were found in the MICs between the experiments.
(§2) Bacterial strains used in this study for antibacterial susceptibility testing (Table S2) were propagated using standard microbiological procedures. Minimal inhibitory concentrations (MICs) were determined following a standard double-dilution method (42), 73. MICs were recorded as the lowest concentration of the compound where no visible growth was observed. After plating the dilutions around the MIC or growing them in fresh MH media, minimal bactericidal concentration (MBC) was recorded as the lowest concentration of the compound at which no colonies were formed or no growth was observed, respectively. For M. marinum, MICs were determined in Middlebrook 7H9 broth (Difco) and MICs were determined after 3 days incubation at 30 °C.
(§3) Grow the bacterial colonies to be tested from single colonies on an agar plate in LB broth or suitable bacterial growth medium overnight at 37°C. Prepare a 5 mg/mL stock solution of compounds to be tested in DMSO. One 96-well plate per bacterial strain was prepared. First, put 50 uL of medium to each well. Add 48 µL of medium to all wells in row A. Pipet 2 µL of antimicrobial master stock into the top well (row A). Beware, the antimicrobial concentration will be diluted 2x after adding the bacterial culture. Total volume in each well will be 100 µL. In A11, pipet 2 µL of DMSO. Make a serial dilution from row A to row H, pipetting 50 µL from the previous row into the new one. Mix well by pipetting up and down. Discard the last 50 µL so that there is 50 µl in each well In a clean, new plastic pipetting cup, dilute the overnight bacterial culture 100 times. Add 100 µL of bacterial overnight culture to 9900 µL of medium. Mix the suspension well. Once the serial dilutions are complete for all antimicrobial compounds, add 50 µL of diluted overnight bacterial culture to each well (except column 12). Mix by pipetting or put the plate on the shaker. Per 2 plates, close with parafilm around the edges and place in the incubator overnight. After overnight culturing, measure bacterial growth on the SpectraMax. The lowest concentration where no growth is observed is the MIC. To determine the MIB pipette 5 µL from each well of the 96 well plate where now growth was observed on to an LB agar plate, without antimicrobial. Put the plates in the incubator to grow overnight. The minimal concentration where no growth can be seen on the agar plate is the MBC.

E. coli JW5503 = format: cell-based, Escherichia coli; conditions: unit assumed
Procedure: as §1, §2, §3

E. faecium Van A = experiment: Minimal inhibitory concentration (MIC), double-dilution in broth, OD600; format: cell-based, Enterococcus faecium; conditions: unit assumed
Procedure: as §1, §2, §3

M. marinum = experiment: Minimal inhibitory concentration (MIC), Middlebrook 7H9 broth, 3 days at 30 °C; format: cell-based, Mycobacterium marinum; conditions: unit assumed
Procedure: as §1, §2, §3

NRK-52E = experiment: Cell toxicity, Alamar blue assay, 24 hours exposure; format: cell-based; conditions: for IC50: Rattus norvegicus, read-out: IC50 NRK-52E (50 mg/mL stock)
Procedure: Toxicity was primarily determined by measuring cytotoxicity with the Alamar blue assay. In short, cells (HEK293, NRK-52E and Caco-2) were plated in 96-well plates and cultured overnight. HKI compounds were diluted to concentrations ranging from 0.39 to 500 µg/mL in serum-free medium and added to the cells.
After exposure, cells were incubated for 24 hours. Experiments were mostly performed by single measurement. […] After 24 hours HKIs were removed from the cells and Alamar blue was added, incubated for 45 minutes and fluorescence was measured on a spectrophotometer. Alamar blue measures the conversion of blue, low fluorescent resazurin into high fluorescent pink resorufin. This conversion can only be made in viable mitochondria in viable cells and therefore this dye provides a measure for cytotoxicity.

S. aureus Newman = experiment: Minimal inhibitory concentration (MIC), double-dilution in broth, OD600; format: cell-based, Staphylococcus aureus Newman; conditions: unit assumed
Procedure: In short, a stock solution of 5 mg/mL of HKIs in DMSO was made. This stock was diluted to 50 µg/mL in broth in a 96 well plate. Dilutions were made (factor 2) directly in the plate with a multi-channel pipet. Bacteria cultured in suspension overnight were then added to the plate (except negative control) and the plate was incubated for 24 hours. After 24 hours the OD600 was measured using a spectrophotometer. A positive control (with bacteria, without HKI) was also measured on each plate.
Bacterial strains used in this study for antibacterial susceptibility testing (Table S2) were propagated using standard microbiological procedures. Minimal inhibitory concentrations (MICs) were determined following a standard double-dilution method (42), 73. […] For M. marinum, MICs were determined in Middlebrook 7H9 broth (Difco) and MICs were determined after 3 days incubation at 30 °C.
as §3

P. multocida = experiment: as above; format: cell-based, Pasteurella multocida; conditions: unit assumed
Procedure: as §1, §2, §3

| SMILES | MIC S. suis (S. suis) [µg/mL] | MIC E. coli JW5503 (E. coli JW5503) [µg/mL] | MIC E. faecium Van A (E. faecium Van A) [µg/mL] | MIC M. marinum (M. marinum) [µg/mL] | IC50 (NRK-52E) [µg/mL] | MIC S. aureus Newman (S. aureus Newman) [µg/mL] | MIC P. multocida (P. multocida) [µg/mL] | IC50 NRK-52E (50 mg/mL stock) (NRK-52E; 50 mg/mL stock) |
| --- | --- | --- | --- | --- | --- | --- | --- | --- |
| C=C(C)COc1ccc(-c2[nH]nc(C(F)(F)F)c2-c2ccc(OC)cc2)c(O)c1 [Sep-7, 2-[4-(4-methoxyphenyl)-5-(trifluoromethyl)-1∼{H}-pyrazol-3-yl]-5-(2-methylallyloxy)phenol] | 12.5 (≈ 30.9 µM) | 6.25 (≈ 15.5 µM) | 12.5 (≈ 30.9 µM) | > 50 | ~7.49 (≈ 18.5 µM) | 6.25 (≈ 15.5 µM) | > 50 |  |
| COc1ccc(-c2c(C(F)(F)F)n[nH]c2-c2ccc(OCc3ccccc3F)cc2O)cc1 [Sep-8, 5-(2-fluorobenzyl)oxy-2-[4-(4-methoxyphenyl)-5-(trifluoromethyl)-1∼{H}-pyrazol-3-yl]phenol] | 12.5 (≈ 27.3 µM) | 50 (≈ 109 µM) | 6.25 (≈ 13.6 µM) | > 50 | ~14.5 (≈ 31.7 µM) | 3.13 (≈ 6.83 µM) | > 50 |  |
| Oc1cc(OCc2c(F)cccc2Cl)ccc1-c1[nH]nc(C(F)(F)F)c1-c1ccc(Cl)cc1 [Sep-11, 5-(2-chloro-6-fluorobenzyl)oxy-2-[4-(4-chlorophenyl)-5-(trifluoromethyl)-1∼{H}-pyrazol-3-yl]phenol] | 12.5 (≈ 25.1 µM) | > 50 | 6.25 (≈ 12.6 µM) | > 50 | 11.8 (≈ 23.8 µM) | 3.13 (≈ 6.29 µM) | > 50 |  |
| O=[N+]([O-])c1ccc(COc2ccc(-c3[nH]nc(C(F)(F)F)c3-c3ccc(Cl)cc3)c(O)c2)cc1 [Sep-12, 2-[4-(4-chlorophenyl)-5-(trifluoromethyl)-1∼{H}-pyrazol-3-yl]-5-(4-nitrobenzyl)oxyphenol] | 12.5 (≈ 25.5 µM) | > 50 | 12.5 (≈ 25.5 µM) | 50 (≈ 102 µM) | 14.7 (≈ 30.1 µM) | 3.13 (≈ 6.39 µM) | > 50 |  |
| COc1ccc(-c2c(C(F)(F)F)n[nH]c2-c2ccc(OCc3ccc(F)cc3)cc2O)cc1 [Sep-14, 5-(4-fluorobenzyl)oxy-2-[4-(4-methoxyphenyl)-5-(trifluoromethyl)-1∼{H}-pyrazol-3-yl]phenol] | 25 (≈ 54.5 µM) | 25 (≈ 54.5 µM) | 12.5 (≈ 27.3 µM) | > 50 | ~16.6 (≈ 36.3 µM) | 12.5 (≈ 27.3 µM) | > 50 |  |
| C=C(C)COc1ccc(-c2[nH]nc(C(F)(F)F)c2-c2ccccc2OC)c(O)c1 [Sep-15, 2-[4-(2-methoxyphenyl)-5-(trifluoromethyl)-1∼{H}-pyrazol-3-yl]-5-(2-methylallyloxy)phenol] | 12.5 (≈ 30.9 µM) | 6.25 (≈ 15.5 µM) | 6.25 (≈ 15.5 µM) | 50 (≈ 124 µM) | ~7.62 (≈ 18.8 µM) | 3.13 (≈ 7.74 µM) | > 50 |  |
| COc1ccccc1-c1c(C(F)(F)F)n[nH]c1-c1ccc(OCc2ccc(C)cc2)cc1O [Sep-16, 2-[4-(2-methoxyphenyl)-5-(trifluoromethyl)-1∼{H}-pyrazol-3-yl]-5-(4-methylbenzyl)oxy-phenol] | 25 (≈ 55 µM) | 50 (≈ 110 µM) | 12.5 (≈ 27.5 µM) | > 50 | ~8.72 (≈ 19.2 µM) | 6.25 (≈ 13.8 µM) | > 50 |  |
| COc1ccccc1-c1c(C(F)(F)F)n[nH]c1-c1ccc(OCc2ccccc2)cc1O [Sep-17, 5-benzoxy-2-[4-(2-methoxyphenyl)-5-(trifluoromethyl)-1∼{H}-pyrazol-3-yl]phenol] | 25 (≈ 56.8 µM) | 12.5 (≈ 28.4 µM) | 12.5 (≈ 28.4 µM) | > 50 | ~8.97 (≈ 20.4 µM) | 6.25 (≈ 14.2 µM) | > 50 |  |
| O=[N+]([O-])c1ccc(COc2ccc(-c3[nH]nc(C(F)(F)F)c3-c3ccccc3)c(O)c2)cc1 [Sep-18, 5-(4-nitrobenzyl)oxy-2-[4-phenyl-5-(trifluoromethyl)-1∼{H}-pyrazol-3-yl]phenol] | 12.5 (≈ 27.4 µM) | 12.5 (≈ 27.4 µM) | 12.5 (≈ 27.4 µM) | > 50 | ~14.7 (≈ 32.3 µM) | 6.25 (≈ 13.7 µM) | > 50 |  |
| Oc1ccc(-c2n[nH]c(C(F)(F)F)c2-c2ccc(Br)cc2)c(O)c1 [Sep-20, 4-[4-(4-bromophenyl)-5-(trifluoromethyl)-1∼{H}-pyrazol-3-yl]resorcinol] | 25 (≈ 62.6 µM) | 6.25 (≈ 15.7 µM) | 25 (≈ 62.6 µM) | > 50 |  | 6.25 (≈ 15.7 µM) | > 50 | 7.58 |
| COc1ccc(-c2c(-c3ccc(OCc4ccc(C)cc4)cc3O)n[nH]c2C(F)(F)F)cc1OC [Sep-27, 2-[4-(3,4-dimethoxyphenyl)-5-(trifluoromethyl)-1∼{H}-pyrazol-3-yl]-5-(4-methylbenzyl)oxy-phenol] | 50 (≈ 103 µM) | > 50 | > 50 | 50 (≈ 103 µM) | ~17.6 (≈ 36.3 µM) | 3.13 (≈ 6.46 µM) | > 50 |  |
| COc1ccc(-c2c(-c3ccc(OCc4ccccc4)cc3O)n[nH]c2C(F)(F)F)cc1OC [Sep-28, 5-benzoxy-2-[4-(3,4-dimethoxyphenyl)-5-(trifluoromethyl)-1∼{H}-pyrazol-3-yl]phenol] | > 50 | 25 (≈ 53.1 µM) | > 50 | > 50 | ~17.3 (≈ 36.7 µM) | 12.5 (≈ 26.6 µM) | > 50 |  |
| COc1ccccc1-c1c(-c2ccc(OCC=C(C)C)cc2O)n[nH]c1C(F)(F)F [Sep-30, 2-[4-(2-methoxyphenyl)-5-(trifluoromethyl)-1∼{H}-pyrazol-3-yl]-5-(3-methylbut-2-enoxy)phenol] | 25 (≈ 59.7 µM) | 6.25 (≈ 14.9 µM) | 12.5 (≈ 29.9 µM) | > 50 | ~17.2 (≈ 41.2 µM) | 6.25 (≈ 14.9 µM) | > 50 |  |
